Where a name gives a salt, the structure may show the parent alone.
Biological target: human Factor XIa (Homo sapiens (Human), UniProt P03951)
Experiment: Factor XIa enzyme inhibition assay (chromogenic substrate S-2366)
Format: biochemical
Details: purified human Factor XIa 25-200 pM, substrate S-2366, 50 mM HEPES pH 7.4

Sequence of human Factor XIa (P03951 388-625): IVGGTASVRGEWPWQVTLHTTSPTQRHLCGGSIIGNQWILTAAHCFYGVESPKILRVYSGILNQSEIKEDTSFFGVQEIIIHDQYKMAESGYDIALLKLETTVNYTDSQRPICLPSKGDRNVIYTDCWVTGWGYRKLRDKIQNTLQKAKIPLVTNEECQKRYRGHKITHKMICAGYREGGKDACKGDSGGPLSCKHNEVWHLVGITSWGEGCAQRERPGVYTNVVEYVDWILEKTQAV
Sequence of human Factor XIa (P03951 19-387 partner): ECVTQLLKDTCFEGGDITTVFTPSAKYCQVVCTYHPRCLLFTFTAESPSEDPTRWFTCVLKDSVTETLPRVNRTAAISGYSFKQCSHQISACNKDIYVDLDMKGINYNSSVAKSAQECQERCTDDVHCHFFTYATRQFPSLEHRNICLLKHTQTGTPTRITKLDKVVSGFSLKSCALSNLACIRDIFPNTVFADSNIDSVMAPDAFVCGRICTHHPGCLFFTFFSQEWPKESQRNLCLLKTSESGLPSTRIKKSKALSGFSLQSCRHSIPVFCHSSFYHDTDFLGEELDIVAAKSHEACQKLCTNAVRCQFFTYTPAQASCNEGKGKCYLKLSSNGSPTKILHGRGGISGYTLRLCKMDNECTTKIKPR

SMILES	Ki
Cc1c(C(=O)N[C@H]2CCC[C@@H](C)C(=O)Nc3cc(N)c(C(=O)O)cc3-c3ccnc2c3)nnn1-c1cccc(Cl)c1F [Example 158, (10R,14S)-5-Amino-14-[1-(3-chloro-2-fluorophenyl)-5-methyl-1H-1,2,3-triazole-4-amido]-10-methyl-9-oxo-8,16-diazatricyclo[13.3.1.0^2,7]nonadeca-1(19),2(7),3,5,15,17-hexaene-4-carboxylic acid]	< 5 nM
COC(=O)Nc1ccc2c(c1)NC(=O)[C@H](C)CCC[C@H](NC(=O)c1nnn(-c3cccc(Cl)c3F)c1C)c1nc-2c[nH]1 [Example 39]	10.8 nM
Cc1c(C(=O)N[C@H]2CCC[C@@H](C)C(=O)Nc3cc(C(N)=O)ccc3-c3ccnc2c3)cnn1-c1cccc(Cl)c1F [Example 190, (10R,14S)-14-C-1-(3-Chloro-2-fluorophenyl)-5-methyl-1H-pyrazole-4-10-methyl-9-oxo-8,16-diazatricyclo[13.3.1.0^2,7]nonadeca-1(19),2(7),3,5,15,17-hexaene-5,14-diamido, TFA salt]	6.65 nM
COC(=O)Nc1ccc2c(c1)NC(=O)[C@H](C)CCC[C@H](NC(=O)c1ncn(-c3cccc(Cl)c3F)c1C)c1cc-2cc(=O)[nH]1 [Example 256]	< 5 nM
Cc1c(C(=O)N[C@H]2CCCCC(=O)Nc3cc(C(=O)N(C)C)ccc3-c3ccnc2c3)cnn1-c1cccc(Cl)c1F [Example 193, (14S)-14-C-1-(3-Chloro-2-fluorophenyl)-5-methyl-1H-pyrazole-4-5-N,5-N-dimethyl-9-oxo-8,16-diazatricyclo[13.3.1.0^2,7]nonadeca-1(19),2(7),3,5,15,17-hexaene-5,14-diamido, TFA salt]	2980 nM
Cc1c(C(=O)N[C@H]2CCC[C@@H](C)C(=O)Nc3cc(NC(=O)OCF)ccc3-c3ccnc2c3)nnn1-c1cccc(Cl)c1F [Example 139, Fluoromethyl N-[(10R,14S)-14-[1-(3-chloro-2-fluorophenyl)-5-methyl-1H-1,2,3-triazole-4-amido]-10-methyl-9-oxo-8,16-diazatricyclo[13.3.1.0^2,7]nonadeca-1(19),2(7),3,5,15,17-hexaen-5-yl]carbamate]	5.49 nM
COC(=O)Nc1ccc2c(c1)NC(=O)[C@H](C)CCC[C@H](NC(=O)c1cn(-c3cccc(C)c3)cn1)c1cc-2ccn1 [Example 18]	98.7 nM
COC(=O)Nc1ccc2c(c1)NC(=O)[C@H](C)CCC[C@H](NC(=O)c1cncc(-c3cccc(Cl)c3F)c1)c1cc-2ccn1 [Example 75]	36.5 nM
COC(=O)Nc1ccc2c(c1)NC(=O)[C@H](C)CCC[C@H](NC(=O)c1cnn(-c3cccc(Cl)c3F)c1C)c1c[nH]c-2n1 [Example 262]	13.6 nM
COC(=O)Nc1ccc2c(c1)NC(=O)[C@H](C)CCC[C@H](NC(=O)c1cn(-c3cccc(Cl)c3F)nn1)c1cc-2ccn1 [Example 3]	< 5 nM
COC(=O)Nc1ccc2c(c1)NC(=O)[C@H](C)CCC[C@H](NC(=O)c1ncn(-c3cccc(Cl)c3F)c1C)c1c[nH]c-2n1 [Example 263]	33.2 nM
COC(=O)Nc1ccc2c(c1)NC(=O)[C@H](C)CCC[C@H](NC(=O)c1cnn(C3CCCNC3)c1)c1cc-2ccn1 (stereo partly drawn) [Example 11]	69.4 nM
COC(=O)Nc1ccc2c(c1)NC(=O)CCCC[C@H](NC(=O)c1cnn(-c3cccc(Cl)c3F)c1C)c1cc-2ccn1 [Example 234]	< 5 nM
COC(=O)Nc1ccc2c(c1)NC(=O)CCCC(C)[C@H](NC(=O)c1nnn(-c3cccc(Cl)c3F)c1C)c1cc-2ccn1 (stereo partly drawn) [Example 88, Methyl N-[(14S)-14-[1-(3-chloro-2-fluorophenyl)-5-methyl-1H-1,2,3-triazole-4-amido]-13-methyl-9-oxo-8,16-diazatricyclo[13.3.1.0^2,7]nonadeca-1(19),2(7),3,5,15,17-hexaen-5-yl]carbamate]	52.6 nM
COC(=O)Nc1ccc2c(c1)NC(=O)[C@@H](C)CCC[C@@H](NC(=O)c1cnn(-c3cccc(Cl)c3F)c1C)c1cc-2ncc1F [Example 232]	4290 nM
Cc1c(C(=O)N[C@H]2CCC[C@@H](C)C(=O)Nc3cc(NC(=O)C(F)(F)F)ccc3-c3ccnc2c3)nnn1-c1cccc(Cl)c1F [Example 137, 1-(3-Chloro-2-fluorophenyl)-5-methyl-N-[(10R,14S)-10-methyl-9-oxo-5-(trifluoroacetamido)-8,16-diazatricyclo[13.3.1.0^2,7]nonadeca-1(19),2(7),3,5,15,17-hexaen-14-yl]-1H-1,2,3-triazole-4-carboxamide]	547 nM
COC(=O)Nc1ccc2c(c1)NC(=O)CCCC[C@H](NC(=O)c1cn(-c3cccc(Cl)c3)nn1)c1nc-2c[nH]1 [Example 52, Methyl N-[(14S)-14-[1-(3-chlorophenyl)-1H-1,2,3-triazole-4-amido]-9-oxo-8,16,18-triazatricyclo[13.2.1.0^2,7]octadeca-1(17),2,4,6,15(18)-pentaen-5-yl]carbamate]	217 nM
COC(=O)Nc1ccc2c(c1)NC(=O)[C@H](C)C(O)CC[C@H](NC(=O)c1cnn(-c3cccc(Cl)c3F)c1C)c1cc-2ccn1 (single isomer, unassigned) [Example 177, TFA salt]	54.9 nM

SMILES	Ki
COC(=O)Nc1ccc2c(c1)C(=O)NC(C)CCC[C@H](NC(=O)c1cnn(-c3cccc(Cl)c3F)c1C)c1cc-2ccn1 (single isomer, unassigned) [Example 221]	312 nM
COC(=O)Nc1ccc2c(c1)NC(=O)CC/C=C/C[C@H](NC(=O)c1c[nH]c(-c3c(F)ccc(Cl)c3F)n1)c1nc-2c[nH]1 [Example 58, Methyl ((12E,15S)-15-(((2-(3-chloro-2,6-difluorophenyl)-1H-imidazol-4-yl)carbonyl)amino)-9-oxo-8,17,19-triazatricyclo[14.2.1.0^2,7]nonadeca-1(18),2,4,6,12,16(19)-hexaen-5-yl)carbamate]	935 nM
COCCOC(=O)Nc1ccc2c(c1)NC(=O)[C@H](C)CCC[C@H](NC(=O)c1ncn(-c3cccc(Cl)c3F)c1C)c1cc-2ccn1 [Example 251]	< 5 nM
COC(=O)Nc1ccc2c(c1)NC(=O)CCCC[C@H](NC(=O)c1cnn(-c3cccc(Cl)c3F)c1)c1cc-2cnc1F [Example 32, Methyl N-[(14S)-14-[1-(3-chloro-2-fluorophenyl)-1H-pyrazole-4-amido]-16-fluoro-9-oxo-8,17-diazatricyclo[13.3.1.0^2,7]nonadeca-1(19),2(7),3,5,15,17-hexaen-5-yl]carbamate, TFA salt]	11.4 nM
Cc1nnc(Nc2ccc3c(c2)NC(=O)[C@H](C)CCC[C@H](NC(=O)c2nnn(-c4cccc(Cl)c4F)c2C)c2cc-3ccn2)o1 [Example 159, 1-(3-Chloro-2-fluorophenyl)-5-methyl-N-[(10R,14S)-10-methyl-5-[(5-methyl-1,3,4-oxadiazol-2-yl)amino]-9-oxo-8,16-diazatricyclo[13.3.1.0^2,7]nonadeca-1(19),2(7),3,5,15,17-hexaen-14-yl]-1H-1,2,3-triazole-4-carboxamide]	9.94 nM
CCOC(=O)CNc1ccc2c(c1)NC(=O)[C@H](C)CCC[C@H](NC(=O)c1nnn(-c3cccc(Cl)c3F)c1C)c1cc-2ccn1 [Example 156, Ethyl 2-{[(10R,14S)-14-[1-(3-chloro-2-fluorophenyl)-5-methyl-1H-1,2,3-triazole-4-amido]-10-methyl-9-oxo-8,16-diazatricyclo[13.3.1.0^2,7]nonadeca-1(19),2(7),3,5,15,17-hexaen-5-yl]amino}acetate]	16.8 nM
COC(=O)Nc1ccc2c(c1)NC(=O)[C@H](C)CCC[C@H](NC(=O)c1nnn(-c3cccc(Cl)c3F)c1Cl)c1cc-2ccn1 [Example 15]	< 5 nM
COC(=O)Nc1ccc2c(c1)NC(=O)[C@H](C)CCC[C@H](NC(=O)c1cnn(-c3cccc(Cl)c3)c1C)c1nc-2c[nH]1 [Example 41]	12.8 nM
COC(=O)Nc1ccc2c(c1)NC(=O)[C@H](C)CCC[C@H](NC(=O)c1ncn(-c3cccc(Cl)c3F)c1C)c1cc-2cc(OC)n1 [Example 257]	< 5 nM
CCC1CCC[C@H](NC(=O)c2cn(-c3cccc(Cl)c3F)nn2)c2cc(ccn2)-c2ccc(NC(=O)OC)cc2NC1=O (single isomer, unassigned) [Example 24, TFA salt]	< 5 nM
CCOC(=O)C1CCCC[C@H](NC(=O)c2cnn(-c3cccc(Cl)c3F)c2)c2cc(ccn2)-c2ccc(NC(=O)OC)cc2N1 (stereo partly drawn) [Example 26, Ethyl (9R,14S)-14-[1-(3-chloro-2-fluorophenyl)-1H-pyrazole-4-amido]-5-[(methoxycarbonyl)amino]-8,16-diazatricyclo[13.3.1.0^2,7]nonadeca-1(19),2(7),3,5,15,17-hexaene-9-carboxylate, 2 TFA salt]	178 nM
Cc1c(C(=O)N[C@H]2CCC[C@@H](C)C(=O)Nc3cc(Nc4ccncn4)ccc3-c3ccnc2c3)nnn1-c1cccc(Cl)c1F [Example 151]	17.3 nM
COC(=O)Nc1ccc2c(c1)NC(=O)[C@H](C)CCC[C@H](NC(=O)c1cnn(-c3cccc(Cl)c3F)c1C)c1cc(OC)nc-2c1 [Example 227]	< 5 nM
COC(=O)Nc1ccc2c(c1)NC(=O)[C@H](C)CCC[C@H](NC(=O)c1cn(-c3c(F)ccc(Cl)c3F)cn1)c1cc-2ccn1 [Example 72]	10.4 nM
Cc1c(C(=O)N[C@H]2CCC[C@H](C)C(=O)Nc3cc(-c4ccn[nH]4)ccc3-c3ccnc2c3)nnn1-c1cccc(Cl)c1F [Example 165, 1-(3-Chloro-2-fluorophenyl)-5-methyl-N-[(10S,14S)-10-methyl-9-oxo-5-(1H-pyrazol-5-yl)-8,16-diazatricyclo[13.3.1.0^2,7]nonadeca-1(19),2(7),3,5,15,17-hexaen-14-yl]-1H-1,2,3-triazole-4-carboxamide, TFA salt]	5080 nM
COC(=O)Nc1ccc2c(c1)NC(=O)CCCC[C@H](NC(=O)c1cnn(-c3cccc(Cl)c3F)c1)c1cc-2ccn1 [Example 21, Methyl N-[(14S)-14-[1-(3-chloro-2-fluorophenyl)-1H-pyrazole-4-amido]-9-oxo-8,16-diazatricyclo[13.3.1.0^2,7]nonadeca-1(19),2(7),3,5,15,17-hexaen-5-yl]carbamate, TFA salt]	9.08 nM
COC(=O)Nc1ccc2c(c1)NC(=O)[C@H](C)CCC[C@H](NC(=O)c1cnn(-c3cccc(Cl)c3F)c1C)c1cc-2cnn1 [Example 246]	< 5 nM
COC(=O)Nc1ccc2c(c1)NC(=O)[C@H](C)CCC[C@H](NC(=O)c1nnn(-c3c(F)ccc(Cl)c3F)c1C)c1nc-2c[nH]1 [Example 207]	153 nM

Source: US10208068B2, “Macrocycles as factor XIa inhibitors” (BRISTOL-MYERS SQUIBB COMPANY, priority 2011, dated 2019)
